Our source for the T/C and EC50 values is ChEMBL document CHEMBL1151635, “Antineoplastic agents, 105. Zephyranthes grandiflora” (1984).

What all share (type): functional
Assay [1] deals with P388. Briefly: In vivo cytotoxicity against mouse P388 cells at 0.78 to 3.1 mg/kg relative to control. Particulars: dose mg/kg 0.78-3.1.
In assay [2] the test system is P388. Briefly: Cytotoxicity against mouse P388 cells. Particulars: read-out: ED50 (the source's name).
The subject of assay [3] is P388. The experiment in a line: In vivo cytotoxicity against mouse P388 cells at 12.5 mg/kg relative to control.
Assay [4] deals with P388. Briefly: In vivo cytotoxicity against mouse P388 cells at 0.75 to 6 mg/kg relative to control. The settings on record: dose mg/kg 0.75-6.

Regarding `O=C1N[C@H]2[C@H](O)[C@H](O)[C@@H](O)[C@H](O)[C@@H]2c2cc3c(c(O)c21)OCO3` [PANCRATISTATIN], the T/C was 135% in assay [1], 206% in assay [3] and 138% in assay [4]. For the same molecule, the EC50 in assay [2] was less than 0.01 µg/mL.

In general, T/C refers to the ratio of treated to control.
